The supplement of paper PMC10307832

Experiments:
Assay in all cases: relative viability (nuclei count vs DMSO), 5 days (fraction); higher = more cells survive
[1] = compound: CC1(C)CCC(CN2CCN(c3ccc(C(=O)NS(=O)(=O)c4ccc(NCC5CCOCC5)c([N+](=O)[O-])c4)c(Oc4cnc5[nH]ccc5c4)c3)CC2)=C(c2ccc(Cl)cc2)C1 [Venetoclax] + N=C(N)NC(=N)NCCc1ccccc1 [Phenformin] (partner 250 µM)
In short: (§1)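 Each reported value is a median over duplicate plates. It expresses relative viability: treated-well nuclei count divided by vehicle-well nuclei count. Lung cancer cell lines in 1536-well plates were dosed by pin tool a day after seeding, alone with one drug or with a fixed anchor-drug dose plus five library-drug doses (not always all listed) in √10 steps, and nuclei were counted after 5 days.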

[2] = compound: CC1(C)CCC(CN2CCN(c3ccc(C(=O)NS(=O)(=O)c4ccc(NCC5CCOCC5)c([N+](=O)[O-])c4)c(Oc4cnc5[nH]ccc5c4)c3)CC2)=C(c2ccc(Cl)cc2)C1 [Venetoclax] + O=C(CCCCCCC(=O)Nc1ccccc1)NO [Vorinostat] (partner 1 µM)
In short: as §1

[3] = compound: Cn1cnc2c(F)c(Nc3ccc(Br)cc3Cl)c(C(=O)NOCCO)cc21 [Selumetinib] + CS(=O)(=O)CCNCc1ccc(-c2ccc3ncnc(Nc4ccc(OCc5cccc(F)c5)c(Cl)c4)c3c2)o1 [Lapatinib] (partner 2 µM)
In short: as §1

[4] = compound: Cn1cnc2c(F)c(Nc3ccc(Br)cc3Cl)c(C(=O)NOCCO)cc21 [Selumetinib] + O=C(CCCCCCC(=O)Nc1ccccc1)NO [Vorinostat] (partner 1 µM)
In short: as §1

Row | Cell Line | relative viability ([1]; first compound 0.01 µM) | relative viability ([1]; first compound 0.03162 µM) | relative viability ([1]; first compound 0.1 µM) | relative viability ([1]; first compound 0.3162 µM) | relative viability ([1]; first compound 1 µM) | relative viability ([2]; first compound 0.01 µM) | relative viability ([2]; first compound 0.03162 µM) | relative viability ([2]; first compound 0.1 µM) | relative viability ([2]; first compound 0.3162 µM) | relative viability ([2]; first compound 1 µM) | relative viability ([3]; first compound 0.02 µM) | relative viability ([3]; first compound 0.06325 µM) | relative viability ([3]; first compound 0.2 µM) | relative viability ([3]; first compound 0.6325 µM) | relative viability ([4]; first compound 0.02 µM) | relative viability ([4]; first compound 0.06325 µM) | relative viability ([4]; first compound 0.2 µM) | relative viability ([4]; first compound 0.6325 µM)
1 | LOU-NH91 | 0.641 | 0.784 | 0.615 | 0.742 | 0.698 | 0.868 | 1.05 | 0.916 | 1.03 | 0.874 | 0.759 | 0.707 | 0.758 | 0.766 | 0.889 | 0.88 | 0.843 | 0.874
2 | NCI-H520 | 0.477 | 0.507 | 0.554 | 0.566 | 0.519 | 0.761 | 0.75 |  | 0.668 | 0.733 | 0.894 | 0.799 | 0.86 | 0.883 | 0.774 | 0.73 | 0.785 | 0.71
3 | H3255 | 0.407 | 0.43 | 0.348 | 0.345 | 0.414 | 0.782 | 0.899 | 0.897 | 0.777 | 0.733 | 0.238 | 0.267 | 0.218 | 0.243 | 0.671 | 0.752 | 0.846 | 0.797
